Test results as given in patent US7943382B2, “Method for inspecting fat-soluble vitamin and/or fat-soluble food factor by saliva analysis” (Mitsubishi Chemical Medience Corporation, priority 2004, dated 2011).

Assays:
[1] = Transition of the tocopherol level in parotid saliva on ingestion of supplement S; assay type: in vivo, human; details: two tablets (32.8 mg α-tocopherol) every morning for a week, then two weeks discontinuation, 3 volunteers, FIG. 8
Description: 3 volunteers were made to ingest orally two commercial CoQ10 supplement S containing 32.8 mg of tocopherol per two tablets as α-tocopherol at 7:00 every morning continuously for a week, and as a specimen, parotid saliva was collected from PM 4:00 to 5:00, three times, that is, before ingestion and one week after ingestion and two weeks after discontinuation of ingestion. The volunteer had the mouth rinsed with water, and kept quiet on a chair for 5 minutes, while the volunteer accumulated saliva in the oral cavity and discharged to initialize the oral cavity, followed by collecting saliva. […] The ingestion states of the supplement, that is, before ingestion and one week after ingestion, and two weeks after discontinuation of ingestion are arranged on the horizontal axis as points, and the tocopherol concentrations (hereinafter, the measured concentration of tocopherol will be referred to “tocopherol level”) in parotid saliva are arranged on the vertical axis, and transition of the tocopherol level in parotid saliva depending on states of supplements with tocopherol is shown in FIG. 8.

[2] = Chromatograms of parotid saliva specimens A, B and C (HPLC with ECD detection); assay type: in vivo, human; details: Supplement N, one tablet every morning and evening for a month (60 mg CoQ10, 20 mg α-tocopherol per day)
Description: In pretreatment of the specimens, 20 μl of plasma and 180 μl of ethanol (Wako Pure Chemical Industries, Ltd.: HPLC grade) were added to an autosampler vial (sampler vial PP 250 μl: Shiseido Co., Ltd.) to have a final ethanol concentration of 90% (V/V), which was centrifuged under cooling by 1000 G for 5 minutes to precipitate proteins. In the case of directly collected saliva, 150 μl of ethanol was added to 50 μl of the specimen to have a final ethanol concentration of 75% (V/V), which was centrifuged under cooling by 1000 G for 5 minutes to precipitate proteins. […]
Ubidecarenol, tocopherol, lycopene and β-carotene can be quantitatively analyzed at 600 mV. […] Therefore, CoQ10 is converted into ubidecarenol by reducing the carbonyl group to the OH group using the above-mentioned commercial online reduction column, and then detected in an oxidation mode using the amperometry-type electrochemical detector 3005 (Shiseido Co., Ltd.) or the pulse-type electrochemical detector 3016 (Shiseido Co., Ltd.) under the HPLC condition shown in FIGS. 1 and 2, allowing the bulk detection as shown in FIGS. 3 and 4. […]

[3] = cited from earlier work
[4] = Transition of the lycopene and β-carotene levels in parotid saliva on ingestion of lycopene + β-carotene MAX1; assay type: in vivo, human; details: lycopene + β-carotene MAX1, two tablets (20 mg lycopene, 60 mg β-carotene) every morning for a week, then two weeks discontinuation; FIGS. 9 and 10
Description: 2 of 3 volunteers were made to ingest orally two commercial supplement lycopene +β-carotene MAX1 (trade name, Minami Healthy Food Co.) containing 10 mg of lycopene and 30 mg of β-carotene per one tablet (20 mg of lycopene and 60 mg of β-carotene per two tablet) at 7:00 every morning continuously for a week, and as a specimen, parotid saliva was collected from PM 4:00 to 5:00, three times, that is, before ingestion and one week after ingestion and two weeks after discontinuation of ingestion. The volunteer had the mouth rinsed with water, and kept quiet on a chair for 5 minutes, while the volunteer accumulated saliva in the oral cavity and discharged to initialize the oral cavity, followed by collecting saliva. […] The ingestion states of the supplement, that is, before ingestion and one week after ingestion, and two weeks after discontinuation of ingestion, are arranged on the horizontal axis as points, and the concentrations of lycopene and β-carotene (hereinafter, the measured concentrations of lycopene and β-carotene will be referred to “lycopene level” and “β-carotene level” respectively) in parotid saliva are arranged on the vertical axis, and transition of the lycopene and β-carotene levels in parotid saliva depending on ingestion of supplements is shown in FIGS. 9 and 10.

Tocopherol
transition of the tocopherol level in parotid saliva [1]: increased by ingestion and decreased by discontinuation of ingestion
peak in chromatogram of parotid saliva A (supplement-ingesting volunteer) compared with B (non-ingesting volunteer) [2]: higher peak

CC1=C(/C=C/C(C)=C/C=C/C(C)=C/C=C/C=C(C)/C=C/C=C(C)/C=C/C2=C(C)CCCC2(C)C)C(C)(C)CCC1 [β-carotene]
detection in the parotid saliva ([3]; Nonpatent document No. 1): could not be detected
correlation between the serum level and the whole saliva level ([3]; Nonpatent documents No. 1 and 2): positive correlation
transition of the level in parotid saliva [4]: obviously increased in the two volunteers who ingested the supplement compared with one volunteer without ingestion, and decreased by discontinuation of ingestion

CC(C)=CCC/C(C)=C/C=C/C(C)=C/C=C/C(C)=C/C=C/C=C(C)/C=C/C=C(C)/C=C/C=C(\C)CCC=C(C)C [lycopene]
transition of the level in parotid saliva [4]: obviously increased in the two volunteers who ingested the supplement compared with one volunteer without ingestion, and decreased by discontinuation of ingestion
